Paper PMC9964336, “Neosuberitenone, a New Sesterterpenoid Carbon Skeleton; New Suberitenones; and Bioactivity against Respiratory Syncytial Virus, from the Antarctic Sponge Suberites sp” (Marine Drugs, 2023)
Read-outs that look alike come from different tables or passages of the source.

Tests used:
[1] = test system: panel of tumor cell lines; conditions: cited from earlier work
RSV = RSV antiviral assay (Renilla luciferase reporter virus rA2-Rluc in A549 cells); format: cell-based, respiratory syncytial virus; conditions: for EC50 / IC50: human respiratory syncytial virus; for EC50: A549, read-out: EC50 against RSV (Table S12); for Selectivity Index: Selectivity index = CC50/IC50
Experimental: A549 (CCL-185, ATCC) cells were seeded at 1.6 × 10^4 cells in 100 μL of 5% FBS/1X penicillin–streptomycin/F12 medium per well in 96-well µClear® black plates with a clear bottom (Greiner 655090). The cells were infected with 400 PFU/well of a recombinant RSV encoding Renilla luciferase as an additional transcription unit (rA2-Rluc) in a total volume of 50 µL/well and allowed to adsorb for 1 h. Purified compounds were serially diluted two-fold in triplicate and 50 µL/well of the diluted extracts were added to the infected cells. After further incubation at 37 °C and 5% CO2 for 24 h, the supernatants were removed and cells were lysed using Renilla lysis buffer (Promega). Luciferase activity was measured with the Renilla Luciferase reagent (Promega) and BioTek Synergy Mx microplate luminometer using Gen5 version 2.00.18 software. The RSV antiviral effect for the test samples was determined by normalizing to the DMSO-treated control samples and multiplying by 100 to obtain the percent of control. Statistical analysis was performed using GraphPad Prism software version 9.4.1.

[2] = Cytotoxicity assay (MTT) in uninfected A549 cells; format: cell-based; conditions: human, means ± SEM of triplicate samples
Experimental: To test for cell viability, duplicate 96-well plates of uninfected A549 cells were set up in parallel with the RSV antiviral assay. Extracts were diluted and used to treat cells as described above for the RSV antiviral assay. The negative control for cytotoxicity was 2% DMSO while the positive was 2 μM (final concentration) of PDKI inhibitor. After the 24 h incubation period, the cells were processed for an MTT Proliferation Assay (Provost and […] Research) according to the manufacturer's protocol. Absorbance at 570 nm was measured by a microplate luminometer and standardized to control as above. Two percent DMSO and 2 μM PDK1 inhibitor (CalBioChem) were used as negative and positive controls for cell death, respectively. Statistical analysis was performed using GraphPad Prism software version 9.4.1.

ESKAPE pathogens = assay: Antibacterial screen; format: cell-based
Candida strains = assay: Antifungal screen; format: cell-based; conditions: several Candida strains
[3] = Stability in solution (NMR / reversed-phase HPLC observation); format: physicochemical; conditions: CDCl3, NMR solvent
Experimental: While NMR data were collected on purified suberitenone I (6), the signals decreased in intensity while those of a new species grew in intensity. […] Thus, suberitenone J (7) is the oxaspiro-ring-opened isomer, existing in equilibrium with 6. When the two were separated by reversed-phase HPLC, both reverted to an equilibrium mixture of ~3:1 6:7 over 24 h.

HIV gene expression = test system: HIV gene expression; parameters: method as in PMID 27768313; conditions: cited from earlier work
MRSA = test system: MRSA; parameters: method as in doi:10.1021/jo00128a034, PMID 15104501, doi:10.1016/j.tetlet.2004.04.091, doi:10.1016/j.tetlet.2018.07.055; conditions: cited from earlier work
[4] = A549, 24 h, read-out: IC50 (RSV antiviral)
[5] = A549, read-out: IC50 (RSV antiviral, text)

Compound	EC50 (RSV) [µM]	CC50 at 24 h [2] [µM]	Selectivity Index (RSV)	IC50 (RSV; [4]) [µM]	further results
19-episuberitenone B					cytotoxicity against a panel of tumor cell lines [1]: weak cytotoxicity
CC(=O)OC1CC2(C)C=C3C4CC(=O)C(C)(CC4O)C3CC2C2(C)CCCC(C)(C)C12 (stereo not drawn) [Compound 1, Neosuberitenone A]	> 50				viral inhibitory effects (RSV; at 25 µg/mL): did not show any viral inhibitory effects
CC(=O)OC1CC2(C)C(CCC3(C4CC(=O)C(C)=CC4O)OC23)C2(C)CCCC(C)(C)C12 (stereo not drawn) [Compound 2, Suberitenone E]	20.5	87.3 ± 38.1	4.3	20.5 ± 0.7	
CC(=O)OC1CC2(C)C(O)C(C3CC(=O)C(C)=CC3O)=CCC2C2(C)CCCC(C)(C)C12 (stereo not drawn) [Compound 3, Suberitenone F]	9.8	36 ± 5.3	3.7	9.8 ± 1.4	antibacterial activity (ESKAPE pathogens): inactive; activity against RSV (in words) (RSV): active; antifungal activity (Candida strains): inactive
CC(=O)O[C@@H]1C[C@@]2(C)C(=O)C([C@H]3CC(=O)C(C)=C[C@H]3O)=CCC2[C@@]2(C)CCCC(C)(C)C12 (stereo partly drawn) [Compound 4, Suberitenone G]	11	40.7 ± 8.3	3.7	11 ± 1.3	stability in CDCl3 [3]: decomposition was observed
COC1C(C)C(=O)CC(C2(O)CCC3C(C)(CC(OC(C)=O)C4C(C)(C)CCCC43C)C2)C1O (stereo not drawn) [Compound 5, Suberitenone H]	10.9	51.1 ± 17.5	4.7	10.9 ± 1.8	
CC(=O)OC1CC2(C)C=C(C3CC(=O)C(C)=CC3O)CCC2C2(C)CCCC(C)(C)C12 (stereo not drawn) [Compound 10, suberitenone A]	7.9	33.3 ± 1.3	4.3	7.8 ± 0.2	antibacterial activity (ESKAPE pathogens): inactive; activity against RSV (in words) (RSV): active; IC50 (RSV; [5]): 7.9 µM; antifungal activity (Candida strains): inactive
CC(=O)OC1CC2(C)CC(O)(C3CC(=O)C(C)=CC3O)CCC2C2(C)CCCC(C)(C)C12 (stereo not drawn) [Compound 11, suberitenone B]	3.5	67.6 ± 16.3	21.1	3.2 ± 0.4	antibacterial activity (ESKAPE pathogens): inactive; activity against RSV (in words) (RSV): active; IC50 (RSV; [5]): 3.5 µM; antifungal activity (Candida strains): inactive
anvilone A					HIV gene expression (HIV gene expression): turned on HIV gene expression
isosuberitenone B					cytotoxicity against a panel of tumor cell lines [1]: weak cytotoxicity
oxaspirosuberitenone					antibacterial activity against MRSA (MRSA): mild antibacterial activity
